What was measured:
[1] = Tacrolimus concentration in oral fluid and whole blood of kidney transplant recipients by LC-MS/MS (Example 1 patient samples); type: in vivo, human
Description: The chromatographic conditions were optimized and the gradient elution described here provided the best separation of TAC and IS from suppressing phospholipid ions. Chromatographic separation was achieved using a mobile phase which consisted of water containing 2 mM ammonium acetate/0.1% (v/v) formic acid (solvent A); and MeOH containing 2 mM ammonium acetate/0.1% (v/v) formic acid (solvent B). The mobile phase was delivered at 0.4 mL/min flow rate. The run cycle started at 50% solvent (B) and increased gradually to 98% over 0.5 min and was maintained at this level until 1.8 min. To re-equilibrate the column for the next run, solvent (B) decreased within 0.1 min to 50% and remained at 50% until the end of the run at 2.2 minutes. The diversion valve was set to deliver the first 0.70 min and from 1.20 min until the end of each run to waste. The elution time of TAC and IS was 1.0 min.
Mass spectrometry detection and quantification of TAC and ASC was performed in positive electrospray ionization (ESI) and multiple reaction monitoring (MRM) modes. Intellistart tool was used to obtain initial mass spectrometry parameters in low mass resolution analysis mode followed by manual tuning to achieve highest possible sensitivity. Final mass spectrometry parameters were as following: collision energy (CE)=22 and 20 for ASC and TAC respectively, cone voltage (CV)=28, capillary voltage (kV)=1.50, source temperature (° C.)=150, cone gas flow (L/hr)=25, desolvation gas flow (L/hr)=1000, and collision gas flow (mL/min)=0.15. Ammonium adducts [M+NH4]^+ were selected as precursors for MRM with transitions (m/z, Q1→Q3) of (m/z, 809.30→756.30) and (m/z, 821.30→768.35) for ASC and TAC, respectively.
Study protocols were approved by Institutional Review Board at Rhode Island Hospital (Providence, R.I.). After giving informed consent, kidney transplant recipients attending kidney transplant clinics were recruited. […] All blood and OF samples were kept on ice until transferred to the Biomedical and Pharmaceutical Sciences (BPS) department at University of Rhode Island and stored at −80° C. until analyzed. […]

[2] = Tacrolimus concentration in paired oral fluid and blood samples, all samples of Example 2; type: in vivo, human
From the text: Study population: Samples included in this study were collected during two clinical studies from stable kidney transplant recipients. Protocol for each clinical study was approved by the Institutional Review Board of Rhode Island Hospital (Providence, R.I.). On the study day, all patients underwent a physical examination by the study physician and were asked to sign an informed consent prior to sample collection. All patients were on a triple immunosuppressant regimen that included tacrolimus, prednisone, and mycophenolic acid. All blood and OF samples were kept on dry ice until transfer to the Clinical Pharmacokinetics Research Laboratory at the University of Rhode Island and subsequent storage at −80° C. until further analysis.
Upon thawing saliva samples, an aliquot of saliva was weighed with an analytical balance and the weight was recorded to establish the drug concentration as pg/mg weight. Moreover, the pH of saliva was measured by an Orion STAR A111 pH meter equipped with Micro Electrode from Thermo Scientific (Waltham, Mass., USA). To assess and quantify possible blood contamination of OF, a transferrin kit from Salimetrics LLC (State College, Pa., USA) was used (the validated assay range is ≤6.6 mg/dL). Transferrin (TRNs) is a plasma protein (Mw=76,000) that is used as a biomarker for presence of blood in OF. Transferrin quantification was performed using SpectraMax M5e Microplate Reader (Sunnyvale, Calif., USA).
(§1) Sample extraction was preformed mixing 200 μL of the blood sample with 800 μL of precipitating solution [ZnSO4 (17.28 g/L) in water and methanol (30:70, v/v) containing 100 ng/mL ascomycin as internal standard]. After vortex mixing, samples were centrifuged for 10 min at 13,000 rpm.
(§2) The concentration of tacrolimus in OF was measured using a validated LC-MS/MS method. […] TAC was eluted by gradient elution with 2 mM ammonium acetate/0.1 formic acid in water (mobile phase A) and in methanol (mobile phase B) at 0.4 mL/min flow rate. Initial mobile phase comprised of 50% solvent B, increased gradually to 98% over 0.5 min and maintained at this level until 1.8 min. Then mobile phase was returned to initial conditions within 10 s and maintained until the end of the run at 2.2 min to recondition the column for the next run. The elution time of TAC and internal standard was 1.0 min.
(§3) A simple sample preparation and extraction procedure was followed. Briefly, 50 μL of homogenized OF sample was added to 100 μL of ACN precipitating solvent containing internal standard (ascomycin, 600 ng/L). After vortex mixing for 10 s, the mixture was centrifuged at 10,000 g for 5 min at 20° C. The supernatant was then transferred to an auto-sampler vial, and 10 μL was injected onto LC-MS/MS. The dynamic range of the assay was 30-4,800 pg/mL. […] The lower limit of quantification (LLOQ) for the assay was set at […] Acceptance criteria for quality controls (QCs) included in the assay was accuracy between 85-115% and CV <15%. Selectivity was assessed by inspecting the presence of noise or peaks in chromatograms blank OF samples injections (from 6 donors) and a comparison with LLOQ chromatogram.

[3] = Study A: 12-hour profile of tacrolimus in oral fluid and blood; type: in vivo, human; conditions: for OF/blood Conc. (*100) / Tacrolimus Conc. in OF / Tacrolimus blood Conc.: geometric mean (95% CI)
Description: Study A. Characterization of 12-hour profile of tacrolimus in OFs: The objective of this study was to obtain parallel blood and saliva samples for 12 h after the morning dose tacrolimus. On the morning of the study day, a venous blood sample (about 4 mL) was collected in ethylenediaminetetraacetic acid (EDTA) coated tubes. Simultaneously, OF samples were collected by passive drool (resting) in a siliconized plastic cup. After the administration of morning dose of immunosuppressive agents including tacrolimus, serial samples were collected at certain time points post-dose for 12-hour. All patients fasted overnight but prior to the start of sample collection, took a protein bar with their morning medication together with a glass of water. Thus, the samples obtained in this study was regarded as samples collected at non-fasting state.
as §1, §2, §3

[4] = Study B: effect of oral fluid sample collection method on tacrolimus concentration; type: in vivo, human; conditions: geometric mean (95% CI)
Description: Study B. Characterization of the effect of OF sample collection method: Blood samples were collected at pre-dose (C0) and then at two-hour after dose (C2). Patients have arrived at the hospital after an overnight fast and were remained fasted during collection of C0 samples. Matching OF samples were collected within ±5 min from blood sample time by passive drool (resting sample), after mouth rinsing with water (rinsed sample), and immediately after taking a sour candy to stimulate saliva production (stimulated sample). For the following samples, patients were asked to place a small piece of a commercial candy containing citric and tartaric acids (Sour Patch Kids, Mondelēz International, East Hanover, N.J., USA) in their mouth for 10 s with continues tongue movement. After C0 samples collection, patients were given a voucher for breakfast and were asked to report back to the study location shortly before sample collection at two-hour after dose (C2). The same process of blood and corresponding OF sample collection was followed at this time. The C2 samples were regarded as fed state.
as §1, §2, §3

[5] = Stability studies of TAC in oral fluid QC samples; type: physicochemical, human; conditions: for Stability, % Accuracy, Bench top / Stability, % Accuracy, Short-term 1 weeks / Stability, % Accuracy, Short-term 4 weeks / Stability, % Accuracy, Freeze & thaw / Stability, % Accuracy, Auto-sampler 24 hrs / Stability, % Accuracy, Auto-sampler 48 hrs: N = 3; for Stability, % Accuracy, Short-term 1 weeks / Stability, % Accuracy, Short-term 4 weeks: storage at −80° C.; for Stability, % Accuracy, Freeze & thaw: three freeze and thaw cycles; for Stability, % Accuracy, Auto-sampler 24 hrs / Stability, % Accuracy, Auto-sampler 48 hrs: extracted
Description: Stability studies were performed by measuring TAC concentrations in QC1 and QC3, in three replicates. Freeze and thaw (after three freeze and thaw cycles), bench-top, auto-sampler (by re-injecting one of validation batch after it was left in the auto-sampler for 24 h and 48 h), and short-term stability up to one month were investigated.

[6] = cited from earlier work

C=CC[C@@H]1/C=C(\C)C[C@H](C)C[C@H](OC)[C@H]2O[C@@](O)(C(=O)C(=O)N3CCCC[C@H]3C(=O)O[C@H](/C(C)=C/[C@@H]3CC[C@@H](O)[C@H](OC)C3)[C@H](C)[C@@H](O)CC1=O)[C@H](C)C[C@@H]2OC.O [Tacrolimus]
Concentration of TAC in OF (range) ([1]; 181 OF samples, stable transplant recipients): 0.0117 to 2.8644 ng/mL
Calculated concentration of the one OF sample lower than LLOQ ([1]; one of 181 OF samples): around 8.5 pg/mL
Concentration of TAC in whole blood (range) ([1]; stable transplant recipients): 1.7 to 46.1 ng/mL
Tacrolimus concentration in blood (mean±SD) ([2]; 276 paired samples): 7.4 ± 5 ng/mL
Tacrolimus concentration in blood (median) ([2]; 276 paired samples): 5.9 ng/mL
Concentration of tacrolimus in OFs (mean±SD) ([2]; homogenized OFs): 0.744 ± 0.666 ng/mL
Concentration of tacrolimus in OFs (median) ([2]; homogenized OFs): 0.505 ng/mL
Concentration of tacrolimus corrected for the weight of homogenized OF (mean±SD) ([2]; in vivo): 540 ± 485 pg/mg
Concentration of tacrolimus corrected for the weight of homogenized OF (median) ([2]; in vivo): 367 pg/mg
Concentration of TAC in blood ([3]; 80 paired samples, 10 patients, fed state): 5.7 ± 2.6 ng/mL
Concentration of TAC in oral fluids ([3]; 80 paired samples, 10 patients, passive drool, fed state): 0.885 ± 0.65 ng/mL
OF/blood Conc. (*100) ([3]; All other times): 14 (11, 16)
Tacrolimus Conc. in OF ([3]; All other times): 783 (627, 878) pg/mL
Tacrolimus blood Conc. ([3]; All other times): 5.5 (5.0, 5.9) ng/mL
OF/blood Conc. (*100) ([3]; Peak (C2)): 11 (7, 16)
Tacrolimus Conc. in OF ([3]; Peak (C2)): 573 (411, 599) pg/mL
Tacrolimus blood Conc. ([3]; Peak (C2)): 5.5 (4.6, 6.5) ng/mL
OF/blood Conc. (*100) ([3]; Trough (C0, incl. C12)): 11 (7, 18)
Tacrolimus Conc. in OF ([3]; Trough (C0, incl. C12)): 430 (272, 680) pg/mL
Tacrolimus blood Conc. ([3]; Trough (C0, incl. C12)): 3.8 (3.1, 4.7) ng/mL
OF/blood Conc. (*100) ([4]; C0 (fasted), Resting): 19 (14, 24)
Tacrolimus Conc. in OF ([4]; C0 (fasted), Resting): 1003 (747, 1348) pg/mL
Tacrolimus blood Conc. ([4]; C0 (fasted), Resting): 5.5 (4.7, 6.3) ng/mL
OF/blood Conc. (*100) ([4]; C0 (fasted), Rinsed): 11 (9, 13)
Tacrolimus Conc. in OF ([4]; C0 (fasted), Rinsed): 584 (436, 782) pg/mL
Tacrolimus blood Conc. ([4]; C0 (fasted), Rinsed): 5.4 (4.7, 6.3) ng/mL
OF/blood Conc. (*100) ([4]; C0 (fasted), Stimulated): 3 (2, 4)
Tacrolimus Conc. in OF ([4]; C0 (fasted), Stimulated): 164 (119, 226) pg/mL
Tacrolimus blood Conc. ([4]; C0 (fasted), Stimulated): 5.5 (4.8, 6.2) ng/mL
OF/blood Conc. (*100) ([4]; C2 (fed), Resting): 7 (5, 9)
Tacrolimus Conc. in OF ([4]; C2 (fed), Resting): 635 (437, 923) pg/mL
Tacrolimus blood Conc. ([4]; C2 (fed), Resting): 9.4 (7.6, 11.7) ng/mL
OF/blood Conc. (*100) ([4]; C2 (fed), Rinsed): 5 (4, 7)
Tacrolimus Conc. in OF ([4]; C2 (fed), Rinsed): 468 (347, 630) pg/mL
Tacrolimus blood Conc. ([4]; C2 (fed), Rinsed): 9.0 (7.4, 11.0) ng/mL
OF/blood Conc. (*100) ([4]; C2 (fed), Stimulated): 3 (2, 4)
Tacrolimus Conc. in OF ([4]; C2 (fed), Stimulated): 235 (167, 330) pg/mL
Tacrolimus blood Conc. ([4]; C2 (fed), Stimulated): 8.8 (7.6, 10.2) ng/mL
Stability, % Accuracy, Bench top ([5]; QC1 (30 pg/mL) in OF): 111.1%
Stability, % Accuracy, Short-term 1 weeks ([5]; QC1 (30 pg/mL) in OF): 98.4%
Stability, % Accuracy, Short-term 4 weeks ([5]; QC1 (30 pg/mL) in OF): 100.8%
Stability, % Accuracy, Freeze & thaw ([5]; QC1 (30 pg/mL) in OF): 108.2%
Stability, % Accuracy, Auto-sampler 24 hrs ([5]; QC1 (30 pg/mL)): 105.3%
Stability, % Accuracy, Auto-sampler 48 hrs ([5]; QC1 (30 pg/mL)): 102.5%
Stability, % Accuracy, Bench top ([5]; QC3 (1200 pg/mL) in OF): 98.8%
Stability, % Accuracy, Short-term 1 weeks ([5]; QC3 (1200 pg/mL) in OF): 98.9%
Stability, % Accuracy, Short-term 4 weeks ([5]; QC3 (1200 pg/mL) in OF): 102.9%
Stability, % Accuracy, Freeze & thaw ([5]; QC3 (1200 pg/mL) in OF): 111.9%
Stability, % Accuracy, Auto-sampler 24 hrs ([5]; QC3 (1200 pg/mL)): 102.2%
Stability, % Accuracy, Auto-sampler 48 hrs ([5]; QC3 (1200 pg/mL)): 105.6%
Stability in extracted matrix ([5]; auto-sampler, up to 48 h): stable in extracted matrix for up to 48 h
Fraction of tacrolimus distributed into red blood cells [6]: About 85%
Fraction of total TAC in blood present as free (unbound) form [6]: 1%
